Measurements: patent US5620959A, “Bombesin antagonists” (Glaxo Wellcome Inc., priority 1990, dated 1997)

Molecular target: 3T3 ROZ cells (Mus musculus, UniProt P21729)
Experiment: Inhibition of bombesin-stimulated mitogenesis (3H-thymidine uptake) of quiescent 3T3 ROZ cells
Assay type: cell-based
Conditions: compared with the peptide from the other stereoisomer at the hydroxy position; test not named at b235
Protocol: Antagonistic activity was measured by inhibition of the mitogenic stimulation of quiescent 3T3 ROZ cells. […] Cells were incubated for eighteen hours with 10 ng/mL of BN either alone or in the presence of an antagonist. Cells were then pulsed-labeled for 2 hours with ^3 H-thymidine and washed. The incorporated ^3 H was then counted.
Potency of antagonists was measured by inhibition of this maximum response down to baseline level. IC50 values were determined from titration curves.

Chain of 3T3 ROZ cells (P21729 whole entry): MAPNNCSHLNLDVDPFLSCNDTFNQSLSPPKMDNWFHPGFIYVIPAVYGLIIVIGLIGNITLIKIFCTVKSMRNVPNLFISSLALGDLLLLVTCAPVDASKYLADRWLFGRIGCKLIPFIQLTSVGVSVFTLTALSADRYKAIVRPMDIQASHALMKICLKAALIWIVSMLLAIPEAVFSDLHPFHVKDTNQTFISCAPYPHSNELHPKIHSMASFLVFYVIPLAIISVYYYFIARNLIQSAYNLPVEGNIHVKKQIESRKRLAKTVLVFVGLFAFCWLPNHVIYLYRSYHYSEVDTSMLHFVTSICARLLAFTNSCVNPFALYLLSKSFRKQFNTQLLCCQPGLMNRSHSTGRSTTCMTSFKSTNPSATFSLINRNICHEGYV

`CC(C)[C@H](NC(=O)[C@H](C)NC(=O)[C@H](Cc1c[nH]c2ccccc12)NC(=O)[C@H](Cc1c[nH]cn1)NC(=O)CCc1ccccc1)C(=O)N[C@H](C)C(=O)N[C@@H](Cc1c[nH]cn1)C(=O)N1CCC[C@@H]1C(O)CC(=O)N[C@@H](Cc1ccccc1)C(N)=O` (single isomer, unassigned) [N--((3-Phenyl)Propionyl)--HisTrpAlaVal D--AlaHis(3-(2-Pyrrolidinyl-3Hydroxy)Propionyl)--Phe--NH2] was tested, and the “relative activity of the two peptides made from the two hydroxy stereoisomers” value was “the more active of the two”.
